From patent US9303033B2, “Pyrazolopyrimidines and related heterocycles as CK2 inhibitors” (SENHWA BIOSCIENCES, INC., priority 2009, dated 2016)
Where two headings read alike, the source gives them in different places.

Columns and labels:
CK2 ααββ = CK2 ααββ (Homo sapiens (Human), UniProt P68400); test: CK2 assay (cell-free, 33P-ATP, phosphocellulose filter plate); assay type: biochemical
recombinant human PIM2 = recombinant human PIM2 (Homo sapiens (Human), UniProt Q9P1W9); test: PIM-2 assay (33P-ATP filter binding); assay type: biochemical; details: for PIM2: % inh […]: at […] compound
Protocol: Test compounds dissolved and diluted in DMSO (2 μl) were added to a reaction mixture comprising 10 μl of 5× Reaction Buffer (40 mM MOPS pH 7.0, 5 mM EDTA), 10 μl of recombinant human PIM2 solution (4 ng PIM-2 dissolved in dilution buffer (20 mM MOPS pH 7.0; EDTA 1 mM; 5% Glycerol; 0.01% Brij 35; 0.1%; 0.1% 2-mercaptoethanol; 1 mg/ml BSA)) and 8 ul of water.

MDAMB453 = test: Cell proliferation assay with Alamar Blue (AB), MDAMB453; assay type: cell-based
Protocol: (§1) A representative cell-proliferation assay protocol using Alamar Blue dye (stored at 4° C., use 20 ul per well) is described hereafter.
(§2) a. Split and trypsinize cells.
(§3) b. Count cells using hemocytometer.
(§4) c. Plate 4,000-5,000 cells per well in 100 μl of medium and seed into a 96-well plate according to the following plate layout. Add cell culture medium only to wells B10 to B12.
(§5) d. Add 100 μl of 2× drug dilution to each well in a concentration shown in the plate layout above. […] Total volume is 200 μl/well.
(§6) e. Incubate four (4) days at 37° C., 5% CO2 in a humidified incubator.
(§7) f. Add […] Alamar Blue reagent to each well.
(§8) g. Incubate for four (4) hours at 37° C., 5% CO2 in a humidified incubator.
(§9) h. Record fluorescence at an excitation wavelength of 544 nm and emission wavelength of 590 nm using a microplate reader.
(§10) In the assays, cells are cultured with a test compound for approximately four days, the dye is then added to the cells and fluorescence of […] dye is detected after approximately four hours. Different types of cells can be utilized in the assays (e.g., HCT-116 human colorectal carcinoma cells, PC-3 human prostatic cancer cells, MDA-MB231 human breast cancer cells, K-562 human chronic myelogenous leukemia (CML) cells, MiaPaca human pancreatic carcinoma cells, MV-4 human acute myeloid leukemia cells, and BxPC3 human pancreatic adenocarcinoma cells).

[1] = tested on: BxPC3 human pancreatic adenocarcinoma cells; test: Cell proliferation assay with Alamar Blue (AB), BxPC3; assay type: cell-based
Protocol: as §1, §2, §3, §4, §5, §6, §7, §8, §9, §10

[2] = PIM2: IC50 (5 μM ATP), 5 μM ATP
[3] = Homo sapiens, MDA-MB-453, MDAMB453 cells, read-out: AB: MDAMB453
[4] = Homo sapiens, BXPC-3, read-out: AB: BxPC3
[5] = MDAMB453 cells, read-out: AB: MDAMB453 IC50

Chain of CK2 ααββ (P68400 whole entry): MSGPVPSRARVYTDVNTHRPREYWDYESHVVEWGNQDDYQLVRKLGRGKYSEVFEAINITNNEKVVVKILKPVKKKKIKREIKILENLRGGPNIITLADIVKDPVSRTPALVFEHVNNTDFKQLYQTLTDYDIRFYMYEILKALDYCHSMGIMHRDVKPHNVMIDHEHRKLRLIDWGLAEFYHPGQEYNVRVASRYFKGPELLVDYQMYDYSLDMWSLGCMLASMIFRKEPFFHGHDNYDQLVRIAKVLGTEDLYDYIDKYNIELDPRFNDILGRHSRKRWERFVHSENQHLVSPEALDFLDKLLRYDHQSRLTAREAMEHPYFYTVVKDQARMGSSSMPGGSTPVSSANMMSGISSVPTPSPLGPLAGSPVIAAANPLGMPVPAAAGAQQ
Chain of CK2 ααββ (P67870 whole entry partner): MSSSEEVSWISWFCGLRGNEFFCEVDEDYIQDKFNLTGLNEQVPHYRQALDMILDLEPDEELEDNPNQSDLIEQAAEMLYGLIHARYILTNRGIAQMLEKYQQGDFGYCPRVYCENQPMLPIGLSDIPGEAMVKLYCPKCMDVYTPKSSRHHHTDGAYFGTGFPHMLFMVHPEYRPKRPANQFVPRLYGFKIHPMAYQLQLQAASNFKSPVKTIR
Chain of recombinant human PIM2 (Q9P1W9 whole entry): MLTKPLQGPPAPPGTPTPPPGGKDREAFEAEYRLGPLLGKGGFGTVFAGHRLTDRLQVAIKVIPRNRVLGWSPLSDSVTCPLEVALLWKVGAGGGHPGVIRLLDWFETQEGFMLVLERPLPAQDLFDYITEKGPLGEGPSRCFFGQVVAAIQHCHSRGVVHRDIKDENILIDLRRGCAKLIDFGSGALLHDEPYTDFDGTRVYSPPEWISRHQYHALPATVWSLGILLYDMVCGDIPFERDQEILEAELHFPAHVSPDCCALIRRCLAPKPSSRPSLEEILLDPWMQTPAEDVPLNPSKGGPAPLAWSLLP

SMILES	IC50 (CK2 ααββ)	IC50 (recombinant human PIM2; [2])	IC50 (MDAMB453; [3])	IC50 [1, 4]	PIM2: % inh […] (recombinant human PIM2)	IC50 (MDAMB453; [5])	IC50 ([1]; read-out: AB: BxPC3 IC50)	IC50 (recombinant human PIM2; read-out: PIM2: IC50 (5 μM ATP), 5 μM ATP)	IC50 (MDAMB453; MDAMB453 cells, read-out: AB: MDAMB453)	IC50 ([1]; read-out: AB: BxPC3)	IC50 (recombinant human PIM2; Tables 41B, 42B, read-out: PIM2: IC50)
O=C1NC(=O)/C(=C/c2cnn3c(NCc4cccnc4)cc(Nc4cccc(Cl)c4)nc23)N1 [Example I6]	< 1000 nM	704 nM	708 nM	2560 nM							
NCc1cccc(-c2cc(NC3CC3)n3ncc(/C=C4\SC(=O)NC4=O)c3n2)c1 [Example J5]	< 1000 nM	198 nM	> 30000 nM	19000 nM							
O=C1NC(=O)/C(=C/c2cnn3c(NC4CCNCC4)cc(Nc4cccc(Cl)c4)nc23)N1 [Example K5]	< 100 nM	2450 nM	1080 nM	11000 nM							
CN(C)CCNC(=O)c1cc(-c2cc(NC3CC3)n3ncc(/C=C4\NC(=O)NC4=O)c3n2)ccc1F [Example G5]	< 10 nM	> 2500 nM	435 nM	1840 nM							
CN(C)C(=O)N1CCC(Nc2cc(Nc3cccc(Cl)c3)nc3c(/C=C4\NC(=O)NC4=O)cnn23)CC1 [Example N5]	< 100 nM	> 2500 nM	1570 nM	17400 nM							
COC(=O)CN1CCC(Nc2cc(Nc3cccc(Cl)c3)nc3c(/C=C4\NC(=O)NC4=O)cnn23)CC1 [Example O5]	< 100 nM	2410 nM	1120 nM	4260 nM							
CS(=O)(=O)Nc1cccc(-c2cc(NC3CC3)n3ncc(/C=C4\NC(=O)NC4=O)c3n2)c1 [Example C4]	< 100 nM	2400 nM	1490 nM	3280 nM							
O=C1NC(=O)/C(=C/c2cnn3c(NC4CC4)cc(-c4cccc(OCC5CC5)c4)nc23)N1 [Example F4]	< 10 nM	> 2500 nM	1300 nM	6590 nM							
CC(C)(C)C(=O)N1CCC(Nc2cc(Nc3cccc(Cl)c3)nc3c(/C=C4\NC(=O)NC4=O)cnn23)CC1 [Example M5]	< 100 nM	> 2500 nM	874 nM	10000 nM							
O=C1NC(=O)/C(=C/c2cnn3c(NCC(F)(F)F)cc(Nc4cccc(Cl)c4)nc23)N1 [Example O6]	< 10 nM	> 2500 nM	1140 nM	> 30000 nM							
N#Cc1cccc(-c2cc(NC3CC3)n3ncc(/C=C4\NC(=O)NC4=O)c3n2)c1 [Example D4]	< 10 nM	> 2500 nM	1050 nM	23600 nM							
C[C@H](Nc1cc(NC2CC2)n2ncc(/C=C3\NC(=O)NC3=O)c2n1)C1CC1 [Example U2]	< 10 nM	766 nM	12800 nM	> 30000 nM							
O=C1NC(=O)/C(=C/c2cnn3c(NC4CC4)cc(-c4cccc(O)c4)nc23)N1 [Example S3]	< 10 nM	614 nM	330 nM	10600 nM							
CN1C(=O)NC(=Cc2cnn3c(NC4CC4)cc(Nc4ccc(C#N)c(Cl)c4)nc23)C1=O [Example E42]	< 100 nM				−72.498%	1290 nM	1970 nM				
Cc1ccc(Nc2cc(NCC3CC3)n3ncc(/C=C4\NC(=O)NC4=O)c3n2)nc1 [Example W1]	< 100 nM	> 2500 nM	7420 nM	9210 nM							
O=C1NC(=O)/C(=C/c2cnn3c(NC4CC4)cc(-c4cccnc4)nc23)N1 [Example U4]	< 10 nM	> 2500 nM	1260 nM	8130 nM							
O=C1NC(=O)/C(=C/c2cnn3c(NC4CC4)cc(-c4cccc(OCC5=NCCN5)c4)nc23)N1 [Example K4]	< 100 nM	1310 nM	1940 nM	2580 nM							
O=C1NC(=O)/C(=C/c2cnn3c(NC4CC4)cc(-c4cccc(C(F)(F)F)c4)nc23)N1 [Example N4]	< 10 nM	> 2500 nM	> 30000 nM	12500 nM							
COC(=O)Nc1cc(NC2CC2)n2ncc(/C=C3\NC(=O)NC3=O)c2n1 [Example N2]	< 10 nM	845 nM	3040 nM	9180 nM							
O=C1NC(=O)/C(=C/c2cnn3c(NC4CC4)cc(NN4CCOCC4)nc23)N1 [Example S2]	< 10 nM	1300 nM	3510 nM	3880 nM							
CC(C)(C)OC(=O)N1CCN(C(=O)c2cccc(Nc3cc(Nc4cccc(Cl)c4)nc4c(/C=C5\NC(=O)NC5=O)cnn34)c2)CC1 [Example E7]	< 10 nM	2020 nM	364 nM	3010 nM							

SMILES	IC50 (CK2 ααββ)	IC50 (recombinant human PIM2; [2])	IC50 (MDAMB453; [3])	IC50 [1, 4]	PIM2: % inh […] (recombinant human PIM2)	IC50 (MDAMB453; [5])	IC50 ([1]; read-out: AB: BxPC3 IC50)	IC50 (recombinant human PIM2; read-out: PIM2: IC50 (5 μM ATP), 5 μM ATP)	IC50 (MDAMB453; MDAMB453 cells, read-out: AB: MDAMB453)	IC50 ([1]; read-out: AB: BxPC3)	IC50 (recombinant human PIM2; Tables 41B, 42B, read-out: PIM2: IC50)
CN(C)C1CCN(Cc2cc(-c3cc(NC4CC4)n4ncc(C=C5NC(=O)NC5=O)c4n3)cs2)C1 (stereo not drawn) [Compound Z13]	< 10 nM							> 2500 nM	2500 nM	10200 nM	
O=C1NC(=O)/C(=C/c2cnn3c(NC4CC4)cc(-c4cccc(OCCN5CCOCC5)c4)nc23)N1 [Example A4]	< 10 nM	> 2500 nM	> 30000 nM	> 30000 nM							
CN(c1cccc(-c2cc(NC3CC3)n3ncc(/C=C4\NC(=O)NC4=O)c3n2)c1)S(C)(=O)=O [Example B5]	< 10 nM	> 2500 nM	26700 nM	5430 nM							
O=C1NC(=O)/C(=C/c2cnn3c(NC4CC4)cc(-c4cccc(OCCCO)c4)nc23)N1 [Example B4]	< 10 nM	2170 nM	7870 nM	7910 nM							
O=C1NC(=O)/C(=C/c2cnn3c(NCC4CC4)cc(Nc4cccnc4)nc23)N1 [Example V1]	< 100 nM	> 2500 nM	5090 nM	6190 nM							
NCc1cccc(-c2cc(NC3CC3)n3ncc(/C=C4\NC(=O)NC4=O)c3n2)c1 [Example R4]	< 10 nM	48.7 nM	14900 nM	10600 nM							
O=C1NC(=O)/C(=C/c2cnn3c(NC4CC4)cc(Nc4ccc(F)cc4Cl)nc23)N1 [Example L1]	< 10 nM	> 2500 nM	500 nM	1350 nM							
O=C1NC(=O)/C(=C/c2cnn3c(Nc4cccc(C(=O)N5CCNCC5)c4)cc(Nc4cccc(Cl)c4)nc23)N1 [Example F7]	< 10 nM	1230 nM	1590 nM	14000 nM							
O=C1NC(=O)/C(=C/c2cnn3c(NCC4CC4)cc(NN4CCOCC4)nc23)N1 [Example Q2]	< 10 nM	284 nM	154 nM	5370 nM							
O=C1NC(=O)/C(=C/c2cnn3c(NC4CC4)cc(N4CC[C@@H](F)C4)nc23)N1 [Example P2]	< 10 nM	708 nM	660 nM	2120 nM							
CCS(=O)(=O)Nc1cccc(-c2cc(NC3CC3)n3ncc(/C=C4\NC(=O)NC4=O)c3n2)c1 [Example X4]	< 10 nM	1730 nM	> 30000 nM	> 30000 nM							
CN1C(=O)NC(=Cc2cnn3c(NC4CC4)cc(Nc4ccccc4F)nc23)C1=O [Example F42]	< 100 nM				−17.549%	29100 nM	> 30000 nM				
O=C1NC(=O)/C(=C/c2cnn3c(NCC4CC4)cc(Nc4cccc(Cl)c4)nc23)N1 [Example T1]	< 10 nM	509 nM	2200 nM	12300 nM							
O=C1NC(=O)C(=Cc2cnn3c(NC4CC4)cc(Oc4cccc(Cl)c4)nc23)N1 [Compound U38]	< 10 nM					10700 nM	20900 nM				> 2500 nM
Cc1c(Nc2ccc(C#N)cc2Cl)nc2c(C=C3NC(=O)NC3=O)cnn2c1NC1CC1 [Example D46]	< 10 nM				53.934%	6240 nM	29900 nM				
O=C1NC(=O)/C(=C/c2cnn3c(Nc4cccc(C(=O)O)c4)cc(Nc4cccc(Cl)c4)nc23)N1 [Example D7]	< 100 nM	> 2500 nM	14200 nM	> 30000 nM							
CS(=O)(=O)c1cccc(-c2cc(NC3CC3)n3ncc(/C=C4\NC(=O)NC4=O)c3n2)c1 [Example X3]	< 10 nM	> 2500 nM	517 nM	13100 nM							
Cc1cc(COc2cccc(-c3cc(NC4CC4)n4ncc(/C=C5\NC(=O)NC5=O)c4n3)c2)no1 [Example G4]	< 10 nM	> 2500 nM	1150 nM	1190 nM							
O=C1NC(=O)/C(=C/c2cnn3c(NC4CCN(CCO)CC4)cc(Nc4cccc(Cl)c4)nc23)N1 [Example P5]	< 100 nM	> 2500 nM	825 nM	16500 nM							
Cc1c(Nc2cccc(Cl)c2)nc2c(C=C3NC(=O)NC3=O)cnn2c1NC1CC1 [Example B46]	< 10 nM				47.606%	24200 nM	> 30000 nM				
O=C1NC(=O)/C(=C/c2cnn3c(NC4CC4)cc(-c4ccncc4)nc23)N1 [Example Q4]	< 10 nM	256 nM	1070 nM	745 nM							
